Experimental data as given in PubChem BioAssay (NCI).
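Briefly, cells in 96-well plates were exposed to five compound concentrations for 48 h, and endpoints were estimated by linear interpolation. TGI: concentration producing complete growth inhibition.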

Legend:
Experiment in all cases: growth of human tumour cells (NCI), 48 h
DLD-1 colon = test system: DLD-1 colon
DMS 114 small cell lung = test system: DMS 114 small cell lung
HOP-18 NSCLC = test system: HOP-18 NSCLC
KM20L2 colon = test system: KM20L2 colon
LXFL 529 NSCLC = test system: LXFL 529 NSCLC
RXF-631 renal = test system: RXF-631 renal

CC(=O)Nc1ccc(C(=O)N2N=C(C)/C(=C/c3cccc([N+](=O)[O-])c3)C2=O)cc1
TGI (DLD-1 colon): > 100 µM
TGI (DMS 114 small cell lung): > 100 µM
TGI (HOP-18 NSCLC): > 100 µM

CN(/N=N/c1nc[nH]c1C(N)=O)C1CCCCC1
TGI (DLD-1 colon): > 100 µM
TGI (DMS 114 small cell lung): > 100 µM
TGI (KM20L2 colon): > 100 µM
TGI (LXFL 529 NSCLC): > 100 µM

COC1=CC(=O)c2c(O)c3c(c(O)c2C1=O)C[C@](C)(O)C[C@@H]3O
TGI (DLD-1 colon): 17.2 µM
TGI (DMS 114 small cell lung): 3.7 µM
TGI (KM20L2 colon): > 100 µM
TGI (LXFL 529 NSCLC): 14.9 µM
TGI (RXF-631 renal): 11.2 µM

C=CCC1(CC)C(=O)NC(=O)NC1=O
TGI (KM20L2 colon): > 100 µM
TGI (LXFL 529 NSCLC): > 100 µM

COc1cccc(NC(=O)CC(=O)NNCC(=O)Nc2nnc(-c3ccc(N(CCC#N)S(=O)(=O)c4ccccc4)cc3)s2)c1
TGI (DLD-1 colon): > 100 µM
TGI (DMS 114 small cell lung): > 100 µM
TGI (HOP-18 NSCLC): > 100 µM
TGI (KM20L2 colon): > 100 µM
TGI (LXFL 529 NSCLC): > 100 µM
TGI (RXF-631 renal): > 100 µM

Cc1occ2c1C(=O)CC1C2[C@@H](O)CC2C(C)(C)CCC[C@]12C (stereo partly drawn)
TGI (DLD-1 colon): > 100 µM
TGI (DMS 114 small cell lung): > 100 µM
TGI (HOP-18 NSCLC): > 100 µM
TGI (KM20L2 colon): > 100 µM
TGI (LXFL 529 NSCLC): > 100 µM

C#CCSc1nc(N)c2ncn(C3OC(COP(=O)(O)O)C(O)C3O)c2n1 (stereo not drawn)
TGI (DLD-1 colon): > 239 µM
TGI (HOP-18 NSCLC): > 239 µM
TGI (KM20L2 colon): > 239 µM

COC(=O)C1=C(C)N(NC(=O)c2ccccc2)C2(O)CCCC(=O)C12C (stereo not drawn)
TGI (DLD-1 colon): > 100 µM
TGI (DMS 114 small cell lung): > 100 µM
TGI (KM20L2 colon): > 100 µM
TGI (LXFL 529 NSCLC): > 100 µM
TGI (RXF-631 renal): > 100 µM
